# Legend:
# Assay in all cases: Test D controlled growth environment herbicide test, pre- and postemergence
# Format in all cases: in vivo
# [1] = tested on: Russian thistle (Salsola kali)
# In short: (§1)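 Pre-emergence: seeds sown in silt loam soil were sprayed with compound in a non-phytotoxic solvent mix containing surfactant. Post-emergence: plants at 2 to 18 cm (1- to 4-leaf stage) in peat moss/vermiculite medium got the same formulation. Visual 0–100 rating versus controls after 14 to 21 d.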
# [2] = tested on: barley, spring (spring barley, Hordeum vulgare)
# In short: as §1
# [3] = tested on: buckwheat, wild (wild buckwheat, Polygonum convolvulus)
# In short: as §1
# [4] = tested on: canarygrass (Phalaris minor)
# In short: as §1
# [5] = tested on: chickweed (common chickweed, Stellaria media)
# In short: as §1
# [6] = tested on: field violet (Viola arvensis)
# In short: as §1
# [7] = tested on: galium (catchweed bedstraw, Galium aparine)
# In short: as §1
# kochia (Kochia scoparia) = tested on: kochia (Kochia scoparia)
# In short: as §1
# [8] = tested on: oat, wild (wild oat, Avena fatua)
# In short: as §1
# [9] = tested on: oilseed rape (Brassica napus)
# In short: as §1
# [10] = tested on: pigweed (Amaranthus retroflexus)
# In short: as §1
# [11] = tested on: wheat, spring (spring wheat, Triticum aestivum)
# In short: as §1
# [12] = tested on: wheat, winter (winter wheat, Triticum aestivum)
# In short: as §1
# [13] = Postemergence, 31 g ai/ha, scale 0 to 100 (0 no effect, 100 complete control)
# [14] = Postemergence, 125 g ai/ha, visual rating on scale 0 (no effect) to 100 (complete control), 14 to 21 d
# [15] = Postemergence, 250 g ai/ha, scale 0 to 100 (0 no effect, 100 complete control)
# [16] = Preemergence, 62 g ai/ha, scale 0 to 100 (0 no effect, 100 complete control)
# [17] = Preemergence, 125 g ai/ha, scale 0 to 100 (0 no effect, 100 complete control)
# [18] = Preemergence, 250 g ai/ha, scale 0 to 100, 0 no effect, 100 complete control
# [19] = postemergence, 62 g ai/ha, scale 0 to 100, 0 no effect, 100 complete control
compound,measurement,setting,value
Cc1ccc2ccccc2c1-c1c(OC(=O)OC(C)C)c(C)nn(C)c1=O [Compound 72],Russian Thistle plant response rating,[1]; [13],70
same,"Plant response rating, Russian Thistle",[1]; [14],80
same,"Plant response rating, Russian Thistle",[1]; [15],85
same,"Plant response rating (scale of 0 to 100), Russian Thistle","[1]; Preemergence, 31 g ai/ha",0
same,"Plant response rating, Russian Thistle",[1]; [16],10
same,"Plant response rating, Russian Thistle",[1]; [17],15
same,"Plant response rating, Russian Thistle",[1]; [18],25
same,"Plant response rating, Russian Thistle",[1]; [19],75
same,"Barley, Spring plant response rating",[2]; [13],5
same,"Plant response rating, Barley, Spring",[2]; [14],10
same,"Plant response rating, Barley, Spring",[2]; [15],15
same,"Plant response rating (scale of 0 to 100), Barley, Spring","[2]; Preemergence, 31 g ai/ha",0
same,"Plant response rating, Barley, Spring",[2]; [16],0
same,"Plant response rating, Barley, Spring",[2]; [17],0
same,"Plant response rating, Barley, Spring",[2]; [18],60
same,"Plant response rating, Barley, Spring",[2]; [19],5
same,"Buckwheat, Wild plant response rating",[3]; [13],95
same,"Plant response rating, Buckwheat, Wild",[3]; [14],100
same,"Plant response rating, Buckwheat, Wild",[3]; [15],100
same,"Plant response rating (scale of 0 to 100), Buckwheat, Wild","[3]; Preemergence, 31 g ai/ha",0
same,"Plant response rating, Buckwheat, Wild",[3]; [16],0
same,"Plant response rating, Buckwheat, Wild",[3]; [17],15
same,"Plant response rating, Buckwheat, Wild",[3]; [18],10
same,"Plant response rating, Buckwheat, Wild",[3]; [19],100
same,Canarygrass plant response rating,[4]; [13],40
same,"Plant response rating, Canarygrass",[4]; [14],80
same,"Plant response rating, Canarygrass",[4]; [15],85
same,"Plant response rating (scale of 0 to 100), Canarygrass","[4]; Preemergence, 31 g ai/ha",0
same,"Plant response rating, Canarygrass",[4]; [16],80
same,"Plant response rating, Canarygrass",[4]; [17],85
same,"Plant response rating, Canarygrass",[4]; [18],95
same,"Plant response rating, Canarygrass",[4]; [19],50
same,Chickweed plant response rating,[5]; [13],98
same,"Plant response rating, Chickweed",[5]; [14],100
same,"Plant response rating, Chickweed",[5]; [15],100
same,"Plant response rating (scale of 0 to 100), Chickweed","[5]; Preemergence, 31 g ai/ha",70
same,"Plant response rating, Chickweed",[5]; [16],100
same,"Plant response rating, Chickweed",[5]; [17],100
same,"Plant response rating, Chickweed",[5]; [18],100
same,"Plant response rating, Chickweed",[5]; [19],100
same,Field Violet plant response rating,[6]; [13],90
same,"Plant response rating, Field Violet",[6]; [14],95
same,"Plant response rating, Field Violet",[6]; [15],95
same,"Plant response rating (scale of 0 to 100), Field Violet","[6]; Preemergence, 31 g ai/ha",10
same,"Plant response rating, Field Violet",[6]; [16],75
same,"Plant response rating, Field Violet",[6]; [17],75
same,"Plant response rating, Field Violet",[6]; [18],95
same,"Plant response rating, Field Violet",[6]; [19],95
same,Galium plant response rating,[7]; [13],95
same,"Plant response rating, Galium",[7]; [14],100
same,"Plant response rating, Galium",[7]; [15],100
same,"Plant response rating (scale of 0 to 100), Galium","[7]; Preemergence, 31 g ai/ha",20
same,"Plant response rating, Galium",[7]; [16],60
same,"Plant response rating, Galium",[7]; [17],70
same,"Plant response rating, Galium",[7]; [18],85
same,"Plant response rating, Galium",[7]; [19],100
same,Kochia plant response rating,kochia (Kochia scoparia); [13],80
same,"Plant response rating, Kochia",kochia (Kochia scoparia); [14],100
same,"Plant response rating, Kochia",kochia (Kochia scoparia); [15],100
same,"Plant response rating (scale of 0 to 100), Kochia","kochia (Kochia scoparia); Preemergence, 31 g ai/ha",10
same,"Plant response rating, Kochia",kochia (Kochia scoparia); [16],15
same,"Plant response rating, Kochia",kochia (Kochia scoparia); [17],10
same,"Plant response rating, Kochia",kochia (Kochia scoparia); [18],40
same,"Plant response rating, Kochia",kochia (Kochia scoparia); [19],95
same,"Oat, Wild plant response rating",[8]; [13],85
same,"Plant response rating, Oat, Wild",[8]; [14],95
same,"Plant response rating, Oat, Wild",[8]; [15],98
same,"Plant response rating (scale of 0 to 100), Oat, Wild","[8]; Preemergence, 31 g ai/ha",65
same,"Plant response rating, Oat, Wild",[8]; [16],75
same,"Plant response rating, Oat, Wild",[8]; [17],85
same,"Plant response rating, Oat, Wild",[8]; [18],95
same,"Plant response rating, Oat, Wild",[8]; [19],85
same,Oilseed Rape plant response rating,[9]; [13],65
same,"Plant response rating, Oilseed Rape",[9]; [14],80
same,"Plant response rating, Oilseed Rape",[9]; [15],90
same,"Plant response rating (scale of 0 to 100), Oilseed Rape","[9]; Preemergence, 31 g ai/ha",5
same,"Plant response rating, Oilseed Rape",[9]; [16],15
same,"Plant response rating, Oilseed Rape",[9]; [17],15
same,"Plant response rating, Oilseed Rape",[9]; [18],25
same,"Plant response rating, Oilseed Rape",[9]; [19],70
same,Pigweed plant response rating,[10]; [13],95
same,"Plant response rating, Pigweed",[10]; [14],100
same,"Plant response rating, Pigweed",[10]; [15],100
same,"Plant response rating (scale of 0 to 100), Pigweed","[10]; Preemergence, 31 g ai/ha",35
same,"Plant response rating, Pigweed",[10]; [16],85
same,"Plant response rating, Pigweed",[10]; [17],95
same,"Plant response rating, Pigweed",[10]; [18],100
same,"Plant response rating, Pigweed",[10]; [19],100
same,"Wheat, Spring plant response rating",[11]; [13],40
same,"Plant response rating, Wheat, Spring",[11]; [14],60
same,"Plant response rating, Wheat, Spring",[11]; [15],70
same,"Plant response rating (scale of 0 to 100), Wheat, Spring","[11]; Preemergence, 31 g ai/ha",0
same,"Plant response rating, Wheat, Spring",[11]; [16],35
same,"Plant response rating, Wheat, Spring",[11]; [17],65
same,"Plant response rating, Wheat, Spring",[11]; [18],80
same,"Plant response rating, Wheat, Spring",[11]; [19],50
same,"Wheat, Winter plant response rating",[12]; [13],25
same,"Plant response rating, Wheat, Winter",[12]; [14],50
same,"Plant response rating, Wheat, Winter",[12]; [15],60
same,"Plant response rating (scale of 0 to 100), Wheat, Winter","[12]; Preemergence, 31 g ai/ha",5
same,"Plant response rating, Wheat, Winter",[12]; [16],10
same,"Plant response rating, Wheat, Winter",[12]; [17],25
same,"Plant response rating, Wheat, Winter",[12]; [18],45
same,"Plant response rating, Wheat, Winter",[12]; [19],35

# — patent publication US10597388B2, “Pyridazinone herbicides” (FMC CORPORATION, priority 2014, dated 2020)
